Here are results for seven compounds from article PMC7578061, “Potent inhibition of tumour cell proliferation and immunoregulatory function by mitochondria-targeted atovaquone” (Scientific Reports, 2020).

Each structure is given as a SMILES string.

Experiment [1] relates to CD4+ T cells from SMARTA triple reporter mice. In words: In vitro differentiation of CD4+ T regulatory cells, flow cytometry. It is filed as cell-based, mouse. To be noted: six days of culture; for Foxp3+ Treg differentiation and/or survival: varying concentrations; for Teff cell IFNγ production: dose-dependent; for Treg differentiation and/or survival: up to 60 µM. The source says: Recent reports indicate that selective targeting and inhibiting of mitochondrial complex III mitigate and reverse immunosuppression by Treg cells, promoting the function of Teff cells[15],[17]. […] After six days, cells were stained to assess viability, phenotype, and function using flow cytometry.
Figure 5 In vitro differentiation of CD4^+ T regulatory cells under varying concentrations of Mito-ATOs and controls. After six days of culture, cells were stained for flow cytometry analysis. (left) Live/dead staining to assess the percentage of live CD4 + T cells within the lymphocyte gate. (middle) Teff cell function is shown as the frequency of IFNγ-YFP positive cells within the live CD4^+ T cells. (right) The percentage of Treg cells is shown as the frequency of FoxP3^+CD25^+ cells within the live CD4^+ T cells. […] I assigned them to Mito10-ATO from the label under the bar charts above. / Panel A contour plots: no measure is printed with the gate percentages. Only the axes CD25 and FoxP3 are printed.
To differentiate CD4^+ T cells into a T regulatory cell phenotype, splenocytes from SMARTA triple-reporter mice were processed and the red blood cell lysed using an ACK (ammonium-chloride-potassium) lysis buffer. The cells were then activated with 1 μg/mL GP61–80 peptide (GenScript, Piscataway, NJ) and 5 ng/mL TGF-β1 (Shenandoah Biotechnology, Inc., Warwick, PA). […] Cells were cultured for six days and split once cells reached confluency; cells were replenished with IL-2 and compound accordingly. After six days in culture, cells were stained to assess the viability and phenotypic analysis via flow cytometry. LIVE/DEAD fixable violet or aqua dead cell stain (Invitrogen, Carlsbad, CA) was used to assess cell viability. The following antibodies were used for flow cytometry staining: PercP anti-mouse CD4 (clone: GK1.5; BioLegend, San Diego, CA), APC/Cy7 anti-mouse CD25 (clone: PC61; BioLegend), and PE anti-mouse FOXP3 (clone: FJK-16S; eBioscience, San Diego, CA). Flow cytometry data were acquired using a BD LSRII (BD Biosciences, CA) flow cytometer and analysed using FlowJo (Treestar, Inc., Ashland, OR).

For experiment [2], the target named is T1, mitochondrial complex III (Homo sapiens, UniProt P00156+P47985). In words: Seahorse complex III-driven OCR in permeabilized MiaPaCa-2 cells. The arrangement: carried out on acutely permeabilized cells in the presence of different mitochondrial substrates; endogenous in cells; host or cells: MiaPaCa-2 (A7). The note with it: for Inhibition of complex III-induced oxygen consumption: MiaPaCa-2 cells, 24 h; for IC50: MiaPaCa-2 cells treated 24 h, duroquinol, read-out: Complex III IC50 (AA-inhibitable OCR). The experiment is classed as cell-based. Here is the method: The mitochondrial complex activities were assessed by measuring the oxygen consumption rate (OCR) using the Seahorse technique[6],[11]–[14]. MiaPaCa-2 cells were treated separately with Mito-ATO analogs at different concentrations for 24 h and OCR was measured.
Figure 2 Effects of Mito-ATO analogs on the oxygen consumption induced by mitochondrial complexes I and III. […] MiaPaCa-2 cells were treated with Mito-ATO for 24 h. Relative complex I (1.5 mM malate, 10 mM pyruvate, 10 mM ADP)-driven OCR (left) and relative complex III (0.5 mM duroquinol, 10 mM ADP)-driven OCR (right) were monitored by XF-96 analyser. Either Rot (complex I inhibitor) or antimycin A (AA, complex III inhibitor) was acutely added and OCR assayed immediately. […] Dashed lines represent the fitting curves used for determination of the IC50 values. (n.a., not applicable).
(§1) Mitochondrial bioenergetic function was measured in real time using the Seahorse XF 96 Extracellular Flux Analyzer (Agilent, North Billerica, MA)[11]–[13],[22]. The OCR-based assessment of mitochondrial complex activities was carried out on acutely permeabilized cells in the presence of different mitochondrial substrates, i.e., pyruvate/malate, for complex I and duroquinol for complex III[11],[14],[31],[32]. Rot, malonate, and antimycin A (Sigma-Aldrich, St. Louis, MO) were used as specific inhibitors of mitochondrial complexes I, II, and III, respectively. Briefly, cells that were intact after treatments were immediately permeabilized using the Seahorse XF Plasma Membrane Permeabilizer (Agilent). The mitochondrial complex I-driven OCR was assayed in mannitol and sucrose buffer[31] containing 10 mM pyruvate and 1.5 mM malate (substrates for complex I) and 10 mM malonate (which inhibits complex II activities). The mitochondrial complex III-driven OCR was assayed in mannitol and sucrose buffer containing 0.5 mM duroquinol (substrate for complex III) and 1 µM Rot and 10 mM malonate (which inhibit both complex I and II activities). The mitochondrial complex-dependent oxygen consumption (calculated as Rot- or antimycin A-inhibitable OCR equals basal OCR less OCR after Rot or antimycin A injection) was plotted against concentrations to determine the IC50 values.

Experiment [3] deals with MDA-MB-231 human breast cancer cells. In words: IncuCyte cell proliferation (cell confluence), MDA-MB-231. To be noted: MDA-MB-231 cells, read-out: IC50, inhibition of cell proliferation (cell confluence). It is filed as cell-based. From the text: (§2) Previous reports provide evidence for enhanced uptake of several mitochondria-targeted cationic agents into cancer cells as compared with non-transformed control cells[11]–[14].
(§3) The following cell lines were obtained from the American Type Culture Collection (Manassas, VA), where they were regularly authenticated: MiaPaCa-2 (ATCC#CRL-1420, human pancreatic cancer), MDA-MB-231 (ATCC#HTB-26, human breast cancer), A549 (ATCC#CCL-185, human lung cancer), LLC (ATCC#CLR-1642, mouse lung cancer). LKR13 mouse lung cancer cells were a gift from Dr. Jonathan M. Kurie (MD Anderson Cancer Center, Houston, TX)[30]. All cell lines were grown at 37 °C in 5% CO2. MiaPaCa-2 and MDA-MB-231 cells were maintained in DMEM medium (Thermo Fisher Scientific, #11965) supplemented with 10% foetal bovine serum. A549, LLC, and LKR13 cells were maintained in RPMI 1640 medium (Thermo Fisher Scientific, #11875), supplemented with 10% foetal bovine serum. All cells were stored in liquid nitrogen and used within 20 passages after thawing.
(§4) The IncuCyte Live-Cell Imaging system (IncuCyte Essen Bioscience Inc., Ann Arbor, MI) was used to monitor cell proliferation[11]–[13]. As shown in previous publications[11],[12], this imaging system is probe-free and noninvasive, and enables continuous monitoring of cell confluence over several days. […]

Experiment [4] concerns the target T2, mitochondrial complex III (Mus musculus, UniProt P00158+Q9CR68).
T2 construct: carried out on acutely permeabilized cells in the presence of different mitochondrial substrates; endogenous in cells; host or cells: LLC (A11); LKR13 (A13)
In words: Seahorse complex III-driven OCR in LKR13 cells. The experiment is classed as cell-based. Here is the method: (§5) Dashed lines represent the fitting curves used for determination of the IC50 values.
as §1, with “The mitochondrial complex III-driven OCR was assayed in mannitol and sucrose buffer containing 0.5 mM duroquinol (substrate for complex III) and 1 µM Rot and 10 mM malonate (which inhibit both complex I and II activities).” left out

The test system of another experiment is MiaPaCa-2 cells. In words: IncuCyte cell proliferation (cell confluence), MiaPaCa-2. To be noted: for IC50: Homo sapiens, MIA PaCa-2, MiaPaCa-2 cells, confluence as control groups reach 98% confluency, read-out: IC50, inhibition of cell proliferation (cell confluence); for Antiproliferative effect compared with corresponding Mito-ATO analogs: MiaPaCa-2 cells, Figure S3. It is filed as cell-based, human. The method, then: as §3
The IncuCyte Live-Cell Imaging system (IncuCyte Essen Bioscience Inc., Ann Arbor, MI) was used to monitor cell proliferation[11]–[13]. As shown in previous publications[11],[12], this imaging system is probe-free and noninvasive, and enables continuous monitoring of cell confluence over several days. The increase in the percentage of cell confluence was used as a surrogate marker of cell proliferation. In a 96-well plate, cells were plated at 1,000 cells per well in triplicates and left to adhere overnight.

In experiment [5] the test system is A549 human lung cancer cells. In words: IncuCyte cell proliferation (cell confluence), A549. The experiment is classed as cell-based. To be noted: read-out: IC50, inhibition of cell proliferation (cell confluence).
From the text: as §2, §3, §4

The test system of experiment [6] is LKR13 mouse lung cancer cells. In words: IncuCyte cell proliferation (cell confluence), LKR13. To be noted: read-out: IC50, inhibition of cell proliferation (cell confluence). It is filed as cell-based.
From the text: as §2, §3, §4

The target of experiment [7] is T2, mitochondrial complex III. In words: Seahorse complex III-driven OCR in LLC cells. The experiment is classed as cell-based. The method, then:
as §5
as §1, with “The mitochondrial complex III-driven OCR was assayed in mannitol and sucrose buffer containing 0.5 mM duroquinol (substrate for complex III) and 1 µM Rot and 10 mM malonate (which inhibit both complex I and II activities).” left out

The subject of experiment [8] is LLC mouse lung cancer cells. In words: IncuCyte cell proliferation (cell confluence), LLC. It is filed as cell-based. The note with it: Lewis lung carcinoma, read-out: IC50, inhibition of cell proliferation (cell confluence).
From the text: as §2, §3, §4

The target of experiment [9] is T1, mitochondrial complex III. In words: Seahorse complex III-driven OCR in A549 cells. It is filed as cell-based. The arrangement: carried out on acutely permeabilized cells in the presence of different mitochondrial substrates; endogenous in cells; host or cells: A549 (A9). Here is the method: as §5
as §1, with “The mitochondrial complex III-driven OCR was assayed in mannitol and sucrose buffer containing 0.5 mM duroquinol (substrate for complex III) and 1 µM Rot and 10 mM malonate (which inhibit both complex I and II activities).” left out

As to `O=C1C(OCCCCCCCCCCCC[P+](c2ccccc2)(c2ccccc2)c2ccccc2)=C([C@H]2CC[C@H](c3ccc(Cl)cc3)CC2)C(=O)c2ccccc21` [Mito12-ATO], the “Foxp3+ Treg differentiation and/or survival” value in experiment [1] is listed as “did not appreciably inhibit”. In addition, the “Inhibition of complex III-induced oxygen consumption” value in experiment [2] is “did not inhibit”.

On to `O=C1C(OCCCCCCCCCC[P+](c2ccccc2)(c2ccccc2)c2ccccc2)=C([C@H]2CC[C@H](c3ccc(Cl)cc3)CC2)C(=O)c2ccccc21` [Mito10-ATO], for which the IC50 in [3] was 230 nM; in experiment [4], 2100 nM; in the experiment with MiaPaCa-2 cells it was 220 nM; in [5], 140 nM; in [6], 500 nM; in experiment [7], 500 nM. In addition, the figures for the IC50 in experiment [8], in experiment [2] and in experiment [9] were 460 nM, 780 nM and 1000 nM, respectively. Also, in [1], the “Foxp3+ Treg differentiation and/or survival” value is listed as “inhibited”. In addition, the “Teff cell IFNγ production” value in experiment [1] was “promoted”.

With `CCCCCCCCCCOC1=C([C@H]2CC[C@H](c3ccc(Cl)cc3)CC2)C(=O)c2ccccc2C1=O` [Decyl-ATO], the “Antiproliferative effect compared with corresponding Mito-ATO analogs” value in the experiment on MiaPaCa-2 cells is “much less effective”. The “Treg differentiation and/or survival” value in [1] is “did not inhibit”.

As for `O=C1C(O)=C([C@H]2CC[C@H](c3ccc(Cl)cc3)CC2)C(=O)c2ccccc21` [ATO, Atovaquone], the IC50 is 18000 nM in experiment [3]; 18000 nM in the experiment with MiaPaCa-2 cells; 16000 nM in [5]; 10000 nM in experiment [6]; 13000 nM in [8]. In [1], the “Treg differentiation and/or survival” value was “did not inhibit”.

Turning to `CCCCOC1=C([C@H]2CC[C@H](c3ccc(Cl)cc3)CC2)C(=O)c2ccccc2C1=O` [Butyl-ATO], the “Antiproliferative effect compared with corresponding Mito-ATO analogs” value in the experiment on MiaPaCa-2 cells was “much less effective”. In addition, in experiment [1], the “Treg differentiation and/or survival” value was “did not inhibit”.

Regarding `O=C1C(OCCCCCCCCCCCCCCCC[P+](c2ccccc2)(c2ccccc2)c2ccccc2)=C([C@H]2CC[C@H](c3ccc(Cl)cc3)CC2)C(=O)c2ccccc21` [Mito16-ATO], in the experiment with MiaPaCa-2 cells, the IC50 amounted to 3000 nM. In addition, the “Inhibition of complex III-induced oxygen consumption” value in [2] is reported as “did not inhibit”.

Take `O=C1C(OCCCC[P+](c2ccccc2)(c2ccccc2)c2ccccc2)=C([C@H]2CC[C@H](c3ccc(Cl)cc3)CC2)C(=O)c2ccccc21` [Mito4-ATO]: the IC50 in the experiment with MiaPaCa-2 cells was determined as 180 nM. For the same compound, in [1], the “Foxp3+ Treg differentiation and/or survival” value was “inhibited” and the “Teff cell IFNγ production” value was “promoted”. For the same compound, in [2], the IC50 was found to be 580 nM.
